Experimental findings from ChEMBL document CHEMBL4190205 (2017) are described below.

This experiment deals with Human immunodeficiency virus. Briefly: Antiviral activity against HIV infected in human 1A2 cells assessed as protection against virus-induced cytopathic effect by measuring cell viability at 5 ug/ml after 96 hrs by MTT assay relative to control. It counts as functional.
In the case of `COC(=O)NCCc1ccccc1C(=O)NCCc1ccccc1C(=O)NCCc1ccccc1`, the Activity is recorded as 17 - 48%.

As to `O=C(NCCc1ccccc1)NCCc1ccccc1C(=O)NCCc1ccccc1C(=O)NCCc1ccccc1`, the Activity is listed as 17 - 48%.

Consider `O=C(NCCc1ccccc1C(=O)NCCc1ccccc1)NCCc1ccccc1C(=O)NCCc1ccccc1C(=O)NCCc1ccccc1`, for which the Activity is given as 17 - 48%.

As for `COC(=O)NCCc1ccccc1C(=O)NCCc1ccccc1C(=O)NCCc1ccccc1C(=O)NCCc1ccccc1C(=O)NCCc1ccccc1`, the Activity is listed as 17 - 48%.

Turning to `COC(=O)NCCc1ccccc1C(=O)NCCc1ccccc1`, the Activity was 17 - 48%.

In the case of `COC(=O)NCCc1ccccc1C(=O)NCCc1ccccc1C(=O)NCCc1ccccc1C(=O)NCCc1ccccc1`, the Activity was 17 - 48%.

Consider `O=C(NCCc1ccccc1C(=O)NCCc1ccccc1)NCCc1ccccc1C(=O)NCCc1ccccc1`, for which the Activity is recorded as 17 - 48%.

Take `O=C(NCCc1ccccc1)NCCc1ccccc1C(=O)NCCc1ccccc1C(=O)NCCc1ccccc1C(=O)NCCc1ccccc1`: the Activity is on record as 17 - 48%.
